Reference: PubChem BioAssay AID2060508 (Molecular Pharmacology Branch, DTP, NCI, 2025)

Test system: 454973-116-R2-J3-PDC spheroids, viability, % test/control
Assay: Anticancer human tumor 454973-116-R2-J3-PDC patient-derived pancreatic carcinoma cell line growth inhibition [GQUAD]
Conditions: spheroids with HUVEC and MSC; for IC50: curve of first compound; for viability, T/C: stronger effect = lower value
Summary of the method: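 Viability of tumor cells grown as complex spheroids with endothelial and stromal cells, exposed to drug combinations. Top concentration at or near clinical Cmax (else 10 microM), diluted in half-log increments.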

[1] = second compound 0.0316 µM, first compound 0.0316 µM
[2] = second compound 0.0316 µM, first compound 0.1 µM
[3] = second compound 0.0316 µM, first compound 0.316 µM
[4] = second compound 0.0316 µM, first compound 1 µM
[5] = second compound 0.0316 µM, first compound 3.16 µM
[6] = second compound 0.0316 µM, first compound 10 µM
[7] = second compound 0.1 µM, first compound 0.0316 µM
[8] = second compound 0.1 µM, first compound 0.1 µM
[9] = second compound 0.1 µM, first compound 0.316 µM
[10] = second compound 0.1 µM, first compound 1 µM
[11] = second compound 0.1 µM, first compound 3.16 µM
[12] = second compound 0.1 µM, first compound 10 µM
[13] = second compound 0.316 µM, first compound 0.0316 µM
[14] = second compound 0.316 µM, first compound 0.1 µM
[15] = second compound 0.316 µM, first compound 0.316 µM
[16] = second compound 0.316 µM, first compound 1 µM
[17] = second compound 0.316 µM, first compound 3.16 µM
[18] = second compound 0.316 µM, first compound 10 µM
[19] = second compound 1 µM, first compound 0.0316 µM
[20] = second compound 1 µM, first compound 0.1 µM
[21] = second compound 1 µM, first compound 0.316 µM
[22] = second compound 1 µM, first compound 1 µM
[23] = second compound 1 µM, first compound 3.16 µM
[24] = second compound 1 µM, first compound 10 µM
[25] = second compound 3.16 µM, first compound 0.0316 µM
[26] = second compound 3.16 µM, first compound 0.1 µM
[27] = second compound 3.16 µM, first compound 0.316 µM
[28] = second compound 3.16 µM, first compound 1 µM
[29] = second compound 3.16 µM, first compound 3.16 µM
[30] = second compound 3.16 µM, first compound 10 µM
[31] = second compound 10 µM, first compound 0.0316 µM
[32] = second compound 10 µM, first compound 0.1 µM
[33] = second compound 10 µM, first compound 0.316 µM
[34] = second compound 10 µM, first compound 1 µM
[35] = second compound 10 µM, first compound 3.16 µM
[36] = second compound 10 µM, first compound 10 µM
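Further: spheroids exposed to compounds for seven days.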
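Wherever viability, T/C is given: 100% = DMSO vehicle control viability.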

## COc1cccc2c1C(=O)c1c(O)c3c(c(O)c1C2=O)CC(O)(C(=O)CO)CC3OC1CC(N)C(O)C(C)O1 (centres undefined) + Cc1cnc(CNC(=O)c2c(=O)c3ccc(N4CCCN(C)CC4)nc3n3c2sc2ccccc23)cn1
Second compound 0.0316 µM
  IC50: 166 nM
Second compound 0.1 µM
  IC50: 184 nM
Second compound 0.316 µM
  IC50: 418 nM
Second compound 1 µM
  IC50: 746 nM
Second compound 3.16 µM
  IC50: 763 nM
Second compound 10 µM
  IC50: < 31.6 nM
[1]
  viability, T/C: 92.9%
[2]
  viability, T/C: 52.9%
[3]
  viability, T/C: 37.9%
[4]
  viability, T/C: 28.8%
[5]
  viability, T/C: 12.9%
[6]
  viability, T/C: 0.39%
[7]
  viability, T/C: 74.5%
[8]
  viability, T/C: 45.4%
[9]
  viability, T/C: 43.4%
[10]
  viability, T/C: 41%
[11]
  viability, T/C: 13.4%
[12]
  viability, T/C: 0.51%
[13]
  viability, T/C: 66.4%
[14]
  viability, T/C: 52.3%
[15]
  viability, T/C: 49.3%
[16]
  viability, T/C: 44%
[17]
  viability, T/C: 12%
[18]
  viability, T/C: 0.51%
[19]
  viability, T/C: 62.4%
[20]
  viability, T/C: 54.9%
[21]
  viability, T/C: 62.8%
[22]
  viability, T/C: 46.2%
[23]
  viability, T/C: 12.3%
[24]
  viability, T/C: 0.26%
[25]
  viability, T/C: 68%
[26]
  viability, T/C: 69.2%
[27]
  viability, T/C: 63.3%
[28]
  viability, T/C: 46%
[29]
  viability, T/C: 11%
[30]
  viability, T/C: 0.67%
[31]
  viability, T/C: 15.2%
[32]
  viability, T/C: 20%
[33]
  viability, T/C: 43.8%
[34]
  viability, T/C: 27.7%
[35]
  viability, T/C: 0.35%
[36]
  viability, T/C: 0.21%

## COc1ccc([C@@H](O)c2cc(-c3ncnc4cc(N5CCOCC5)ccc34)c(F)cc2Cl)nn1 + Cc1[nH]c2ccc(F)cc2c1-c1nc2c3cccnc3c3ncccc3c2[nH]1
Second compound 0.0316 µM
  IC50: 7420 nM
Second compound 0.1 µM
  IC50: > 10000 nM
Second compound 0.316 µM
  IC50: > 10000 nM
Second compound 1 µM
  IC50: 9540 nM
Second compound 3.16 µM
  IC50: > 10000 nM
Second compound 10 µM
  IC50: 7100 nM
[1]
  viability, T/C: 120%
[2]
  viability, T/C: 101%
[3]
  viability, T/C: 106%
[4]
  viability, T/C: 87.6%
[5]
  viability, T/C: 59.3%
[6]
  viability, T/C: 46.9%
[7]
  viability, T/C: 115%
[8]
  viability, T/C: 104%
[9]
  viability, T/C: 95.3%
[10]
  viability, T/C: 85.4%
[11]
  viability, T/C: 75%
[12]
  viability, T/C: 55.3%
[13]
  viability, T/C: 99.3%
[14]
  viability, T/C: 106%
[15]
  viability, T/C: 85.4%
[16]
  viability, T/C: 91.5%
[17]
  viability, T/C: 65.9%
[18]
  viability, T/C: 53.5%
[19]
  viability, T/C: 98.2%
[20]
  viability, T/C: 97.3%
[21]
  viability, T/C: 96.2%
[22]
  viability, T/C: 75.8%
[23]
  viability, T/C: 70.6%
[24]
  viability, T/C: 48.5%
[25]
  viability, T/C: 94.8%
[26]
  viability, T/C: 94.1%
[27]
  viability, T/C: 92.3%
[28]
  viability, T/C: 91.2%
[29]
  viability, T/C: 66%
[30]
  viability, T/C: 50.7%
[31]
  viability, T/C: 89.2%
[32]
  viability, T/C: 80.2%
[33]
  viability, T/C: 93.9%
[34]
  viability, T/C: 72.2%
[35]
  viability, T/C: 66.9%
[36]
  viability, T/C: 43.4%
